Earlier results on three molecules are cited in patent US20070202055A1, “Pharmaceutical Formulations” (priority 2006, published 2007).

Structures are written as SMILES.

Series [1] concerns rhinoviruses.
Series [2] concerns symptoms associated with chronic nasal congestion.
Series [3] has as its system secretions of natural tear components. Conditions: preclinical testing.

As for `Cc1cc(CCCOc2c(C)cc(-c3noc(C(F)(F)F)n3)cc2C)on1` [Pleconaril, 1,2,4-oxadiazole3-[3,5-Dimethyl-4-[3-(3-methyl-5-isoxazolyl)propoxy]phenyl]-5-(trifluoremethyl)], the “solubility in aqueous solvents” value (aqueous solvents) is “insoluble”. Besides, where the note is “for example corn oil and ethanol”, the “solubility in liquids of low polarity” value was “soluble only in liquids of low polarity”. The activity against rhinoviruses result in series [1] is listed as “active”.
Consider `Oc1cccc(Nc2ncc(F)c(Nc3cccc(O)c3)n2)c1` [Example R112], for which, in series [2], the “absolute difference over placebo” value is 9% and the “relative improvement over placebo” value is on record as “greater than 20%”. For the same molecule, the “improvement from baseline measurements” value in series [2] (baseline prior to drug initiation) is given as “up to 38%”.
On to `O=c1ccn([C@@H]2O[C@H](COP(=O)(O)OP(=O)(O)OP(=O)(O)OP(=O)(O)OC[C@H]3O[C@@H](n4ccc(=O)[nH]c4=O)[C@H](O)[C@@H]3O)[C@@H](O)[C@H]2O)c(=O)[nH]1` [diquafosol], for which the “effect on secretions of natural tear components” value in series [3] is “increased the secretions of natural tear components”.
